Measured values from patent US20100184807A1, “Methods to inhibit tumor cell growth by using proton pump inhibitors” (Bio-Quant, Inc., priority 2008, published 2010).

What was measured:
Experiment in all cases: MTT tumor cell growth assay
Format in all cases: cell-based
[1] = tested on: A3 (colon cancer); conditions: A3 cells, lansoprazole 1-100 μM, 48 hours
Description: (§1) In one study, adherent cells were plated approximately 16-24 hours before the day of the experiment in 180 μl growth media. On the day of the experiment, the plated adherent cells were analyzed and counted and suspension cells were plated in 180 μl growth media. 10× lansoprazole compounds and vehicle was prepared. The 10× lansoprazole compounds were prepared by diluting lansoprazole to final concentrations of 100 μM, 30 μM, 10 μM, 3 μM, and 1 μM. A vehicle was prepared by preparing a solution of PBS, equivalent to the volume used for 10 μM lansoprazole wherein the 1× solution constitutes ˜0.06% PBS. 10 μl of the various 10× lansoprazole solutions and the vehicle were added to the cells. The cells were incubated at 37° C., 5% CO2 for 48 hours. The media was then aspirated. The cell suspension was then spun at 1500 RPM for 10 minutes. The media was slowly removed. 200 μl of MTT solution was added to each well with a concentration of 0.863 mg/ml MTT in the growth media. The cells were incubated at 37° C., 5% CO2 for 4 hours and the medium is then aspirated. The plate containing the cell suspension was then spun at 1500 RPM for 10 minutes. The media was slowly removed using a multichannel pipettor. 100 μl of DMSO was then added to each well. The cells were incubated at 37° C., 5% CO2 for 5 minutes and the absorbance was obtained at 560 nm using a Dynex Opsys MR plate reader. The cells used for this procedure were the following cell lines: IGROV1 (ovarian cancer); OVCAR 8 (ovarian cancer); ES-2 (ovarian cancer); CAOV3 (ovarian cancer); OVCAR5 (ovarian cancer); SUDHL4 (lymphoma); RPMI8226 (myeloma); RPMI6666 (Hodgkin's lymphoma); NC37 (lymphoma); GDM-1 (leukemia); MC/CAR (prostate cancer); DU-145 (prostate cancer), J45-01 (leukemia), MOLT3 (leukemia), HUT78, J-gamma-1 (leukemia), MCF7 […], COL0205 (colon cancer), HL60 CLONE 15 (leukemia), T47D (breast cancer), P116 (intestinal cancer), KU812 (leukemia), SW620 (colon cancer), MK92-M1 (lymphoma), MV-4-11 (leukemia), HS578T (breast cancer), HT29 (colon cancer), HCT 116 (colon cancer), CAKI-1 (kidney cancer), A549 (lung cancer), H460 (lung cancer), A3 (colon cancer), MDA-MB231 […], MALME 3M (melanoma), RXF393 (kidney cancer), RS4.11 (leukemia), PC3 (prostate cancer), OVCAR3 (ovarian cancer), MDA-MB435 (melanoma), HUT102 (lymphoma), HL60 (leukemia), CCRF-CEM (leukemia), HUT78 (lymphoma), 786-O (kidney cancer), ACHN (kidney cancer), A498 (kidney cancer), H226 (lung cancer), H522 (lung cancer), HOP92 (lung cancer), SNB 19 (brain cancer), OVCAR4 (ovarian cancer), H9 (lymphoma), UO-31 (kidney cancer), HH (lymphoma), DAUDI (leukemia), LOXIMVI (melanoma), NAMALWA (lymphoma), EKVX (lung cancer), DOHH2 (lymphoma), SNB75 (brain cancer), SKMEL28 (melanoma), SKMEL5 (melanoma), SKMEL2 (melanoma), M14 (melanoma), UACC 257 (melanoma), H332M (lung cancer), KM12 (colon cancer), HCC2998 (colon cancer), G401 (kidney cancer), RS1184 (lymphoma), MC116 (leukemia), MOLT4 (leukemia), JM1 (liver cancer), HOP-62 (lung cancer), HCT-15 (colon cancer), SF-539 (brain cancer), SF295 (brain cancer), ST486 (lymphoma), U251 (brain cancer), and UACC-62 (melanoma).

[2] = tested on: A498 (kidney cancer); conditions: A498 cells, lansoprazole 1-100 μM, 48 hours
Description: as §1

[3] = tested on: DAUDI (leukemia); conditions: DAUDI cells, lansoprazole 1-100 μM, 48 hours
Description: as §1

[4] = tested on: DOHH2 (lymphoma); conditions: DOHH2 cells, lansoprazole 1-100 μM, 48 hours
Description: as §1

[5] = tested on: EKVX (lung cancer); conditions: EKVX cells, lansoprazole 1-100 μM, 48 hours
Description: as §1

[6] = tested on: H226 (lung cancer); conditions: H226 cells, lansoprazole 1-100 μM, 48 hours
Description: as §1

[7] = tested on: H322M; conditions: H322M cells, lansoprazole 1-100 μM, 48 hours
Description: as §1

[8] = tested on: HCC2998 (colon cancer); conditions: HCC2998 cells, lansoprazole 1-100 μM, 48 hours
Description: as §1

[9] = tested on: HUT78 (lymphoma); conditions: HUT78 cells, lansoprazole 1-100 μM, 48 hours
Description: as §1

[10] = tested on: J-gamma-1 (leukemia); conditions: J-gamma-1 cells, lansoprazole 1-100 μM, 48 hours
Description: as §1

[11] = tested on: J45-01 (leukemia); conditions: J45-01 cells, lansoprazole 1-100 μM, 48 hours
Description: as §1

[12] = tested on: JMI; conditions: JMI cells, lansoprazole 1-100 μM, 48 hours
Description: as §1

[13] = tested on: KU812 (leukemia); conditions: KU812 cells, lansoprazole 1-100 μM, 48 hours
Description: as §1

[14] = tested on: MOLT3 (leukemia); conditions: MOLT3 cells, lansoprazole 1-100 μM, 48 hours
Description: as §1

[15] = tested on: NAMALWA (lymphoma); conditions: NAMALWA cells, lansoprazole 1-100 μM, 48 hours
Description: as §1

[16] = tested on: RXF393 (kidney cancer); conditions: RXF393 cells, lansoprazole 1-100 μM, 48 hours
Description: as §1

[17] = tested on: SKMEL28 (melanoma); conditions: SKMEL28 cells, lansoprazole 1-100 μM, 48 hours
Description: as §1

[18] = tested on: ST486 (lymphoma); conditions: ST486 cells, lansoprazole 1-100 μM, 48 hours
Description: as §1

Measured: tumor cell growth reduction

Cc1c(OCC(F)(F)F)ccnc1C[S+]([O-])c1nc2ccccc2[nH]1 (stereo not drawn) [lansoprazole]
significant tumor cell growth reduction: [1] | [2] | [3] | [4] | [5] | [6] | [7] | [8] | [9] | [10] | [11] | [12] | [13] | [14] | [15] | [16] | [17] | [18]
